Data reported in patent US4237045A, “N-substituted cyclopeptide derivatives and preparation thereof” (American Home Products Corporation, priority 1978, dated 1980).

How the values were obtained:
[1] = test system: Serratia marcescens; assay: serial broth dilution test, growth inhibition; assay type: cell-based; conditions: nutrient broth, incubated at 37° C. for 2 days, examined for presence of growth
Description: (§1) Grove and W. A. Randall in "Assay Methods of Antibiotics", Med. Encycl. Inc., New York, 1955.
(§2) For example, by employing a test like the serial broth dilution, see Grove and Randall, cited above, in which dilutions of the compounds of this invention in nutrient broth are inoculated with the microorganisms or fungi, described above, incubated at 37° C. for 2 days, respectively, and examined for the presence of growth, it may be shown that isomers L and M of cyclo-[N-[1-(1-methylethyl)-2-cyclohexylamino-2-oxo-ethyl]-alanyl-phenylalanyl-valylglycyl-leucyl-methionyl] (described in Example 2) are able to inhibit growth totally in this system of Klebsiella pneumoniae and Serratia marcescens at a concentration of 100/mcg/ml.

[2] = test system: Klebsiella pneumoniae; assay: serial broth dilution test, growth inhibition; assay type: cell-based; conditions: nutrient broth, incubated at 37° C. for 2 days, examined for presence of growth
Description: as §1, §2

CSCC[C@@H]1NC(=O)[C@H](CC(C)C)NC(=O)CNC(=O)[C@H](C(C)C)NC(=O)[C@H](Cc2ccccc2)NC(=O)[C@H](C)N(C(C(=O)NC2CCCCC2)C(C)C)C1=O (stereo partly drawn) [isomer L, Cyclo[N-[1-(1-methylethyl)-2-cyclohexylamino-2-oxo-ethyl]-alanyl-phenylalanyl-valyl-glycyl-leucyl-methionyl]]
concentration able to inhibit growth totally [1]: 100 µg/mL
concentration able to inhibit growth totally [2]: 100 µg/mL
